Drawing on patent US9000154B2, “Rho kinase inhibitors” (Boehringer Ingelheim International GmbH, priority 2010, dated 2015), this text covers IC50 for 19 compounds.

Assay [1] addresses T1, ROCKII (1-543) (Homo sapiens, UniProt O75116). As to the kind of experiment: Luciferin-Luciferase Assay (PKLight ATP detection). The class given is biochemical. Also noted: ROCKII (1-543) (62,408 Da) was diluted in assay buffer. As to conditions: 7.5 nM ROCKII (1-543), 750 nM ATP. As to the method:
1. Luciferin-Luciferase Assay
The activity of ROCKII (1-543) kinase was measured utilizing Cambrex PKLight ATP Detection Reagent, a homogeneous assay technology using luciferin-luciferase to quantify residual ATP. The assay was performed in 384-well low-volume, white, non-binding surface microtiter plates (Corning). The assay buffer was 25 mM HEPES, pH 7.5, 10 mM MgCl2, 50 mM KCl, 0.2% BSA, 0.01% CHAPS, 100 μM Na3VO4 and 0.5 mM DTT. Test compounds, dissolved in neat DMSO at 500 μg/mL, were serially diluted for dose response for a final starting concentration of 3 μg/mL in 1% DMSO of assay buffer. ROCKII (1-543) (62,408 Da) was diluted in assay buffer to a final concentration of 7.5 nM in a total volume of 15 μL. Positive controls were reaction mixtures containing no test compound; negative controls (blanks) were reaction mixtures containing no kinase. After 15 minutes of pre-incubation of the test compounds with the kinase, a mixture of ATP and peptide substrate (AKRRRLSSLRA) in assay buffer was added to each well for a final concentration of 750 nM ATP and 500 nM peptide, respectively. After 90 minutes of incubation of the kinase reaction at 28° C. temperature, 10 μL of PKLight ATP Detection Reagent (warmed to room temperature previously) was added to each well. The assay plate was incubated at room temperature for additional 15 minutes and then read on an Analyst in luminescence mode. Dose-response experiments for each of the test compounds were conducted in quadruplet. IC50 values of test compounds represent 50% response of the positive control from the dose-response curve.
Target sequence in this assay (O75116 1-543): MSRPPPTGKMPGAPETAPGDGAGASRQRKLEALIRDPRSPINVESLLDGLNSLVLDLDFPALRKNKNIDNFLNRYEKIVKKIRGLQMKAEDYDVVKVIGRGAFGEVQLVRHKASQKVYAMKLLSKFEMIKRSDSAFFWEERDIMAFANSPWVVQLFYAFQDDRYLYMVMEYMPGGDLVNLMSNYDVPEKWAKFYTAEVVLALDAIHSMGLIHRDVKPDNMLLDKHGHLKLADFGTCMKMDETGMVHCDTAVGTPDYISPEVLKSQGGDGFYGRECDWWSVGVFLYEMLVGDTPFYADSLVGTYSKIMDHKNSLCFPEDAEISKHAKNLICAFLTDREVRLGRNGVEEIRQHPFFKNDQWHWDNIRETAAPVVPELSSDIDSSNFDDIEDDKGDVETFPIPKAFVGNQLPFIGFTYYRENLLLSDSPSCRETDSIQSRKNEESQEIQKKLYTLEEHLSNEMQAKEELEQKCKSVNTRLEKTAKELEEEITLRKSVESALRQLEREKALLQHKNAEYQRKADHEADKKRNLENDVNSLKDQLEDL

Assay [2] concerns the target T1, ROCKII (1-543). The experiment in a line: IMAP Assay (fluorescence polarization, FAM S6 peptide). Format: biochemical. Also noted: 3 nM ROCKII (1-543) diluted in kinase reaction buffer. Conditions: IMAP FP, 1 nM ROCKII (1-543), 100 μM ATP; read-out: Assay 2 IC50. As to the method: This assay is performed using FAM S6 substrate peptide (Catalogue #R7184) and IMAP FP Screening Express Kit detection reagents from Molecular Devices (Sunnyvale, Calif.) in IMAP kinase reaction buffer (Tris-HCl, pH 7.2, 10 mM MgCl2, 0.05% NaN3, 0.1% phosphate-free BSA) containing 1 mM DTT. Test compounds dissolved in neat DMSO at 0.3 mg/mL are serially diluted 1 to 3 for concentration response in 100% DMSO. The DMSO serial dilutions are further diluted 33.33-fold in kinase reaction buffer, and 10 μL of this buffer dilution is transferred to Corning black 96-well half area NBS plates for a final top concentration of 3 μg/mL in 1% DMSO. 10 μL aliquot of 3 nM ROCKII (1-543) diluted in kinase reaction buffer is added to each assay well for a final concentration of 1 nM kinase. 10 μL of a mixture of 600 nM FAM S6 peptide and 300 μM ATP diluted in kinase reaction buffer is added to each well for a final concentration of 200 nM peptide and 100 μM ATP. The kinase reaction mixture is incubated for 60 minutes at room temperature. Positive controls are reaction mixtures containing no test compound and negative controls (blanks) are reaction mixtures containing no kinase. The kinase reaction is stopped by addition of 60 μL IMAP progressive binding reagent (Catalog #R7284) diluted 400-fold in 1× Binding buffer A. After 30 min of incubation at room temperature, the plates are read for fluorescence polarization on Analyst Plate Reader using Ex 485 nm, Em 530 nm, and FL 505 dichroic mirror. The mP signals are converted to percent of control (POC) values using the formula: POC=100*(Signal−BCTRL)÷(PCTRL−BCTRL)
Where Signal is the test well signal, BCTRL is the average of background (negative control) well signals on the plate and PCTRL is the average of positive control well signals on the plate. For the concentration-responsive compounds, POC as a function of test compound concentration is fitted to a 4-parameter logistic equation of the form: Y=A+(B−A)/[1+(x/C)D]
Where A, B, C, and D are fitted parameters (parameter B is fixed at zero POC), and x and y are the independent and dependent variables, respectively. The IC50 is determined as the inflection point parameter, C.
Target sequence in this assay (O75116 1-543, species assumed): as the sequence (O75116 1-543) above
(In general: Fluorescence polarisation rises when a labelled molecule tumbles more slowly, as on binding a larger partner.)

Molecules are shown by their SMILES. Where a name gives a salt, the structure may show the parent alone.

In the case of `CN1CCc2nc(NC(=O)c3cccc(CN4CCN(c5ccc(C#N)cc5)C4=O)c3)sc2C1` [Compound 1, 3-[3-(4-Cyano-phenyl)-2-oxo-imidazolidin-1-ylmethyl]-N-(5-methyl-4,5,6,7-tetrahydro-thiazolo[5,4-c]pyridin-2-yl)-benzamide], the values for the IC50 against ROCKII (1-543) [1] and on ROCKII (1-543) [2] were 4.8 nM and 54 nM, respectively.

On to `CN1CCc2nc(NC(=O)c3cccc(Cn4cc(-c5ccc(C#N)cc5)nn4)c3)sc2C1` [Compound 2, 3-[4-(4-Cyano-phenyl)-[1,2,3]triazol-1-ylmethyl]-N-(5-methyl-4,5,6,7-tetrahydro-thiazolo[5,4-c]pyridin-2-yl)-benzamide], for which the IC50 (as a rule, the concentration that inhibits the measured activity by half) against ROCKII (1-543) [1] stood at 2.8 nM; at ROCKII (1-543) [2] it was 11 nM.

As for `CN(C)[C@H]1CCc2nc(NC(=O)c3cccc(CN4CCN(c5ccc(C#N)cc5)C4=O)c3)sc2C1` [Compound 3, 3-[3-(4-Cyano-phenyl)-2-oxo-imidazolidin-1-ylmethyl]-N—((S)-6-dimethylamino-4,5,6,7-tetrahydro-benzothiazol-2-yl)-benzamide], the IC50 at ROCKII (1-543) [1] was 2 nM; at ROCKII (1-543) [2] it was 0.67 nM.

`N#Cc1ccc(N2CCN(Cc3cccc(C(=O)Nc4nc5c(s4)C[C@@H](N4CCOCC4)CC5)c3)C2=O)cc1` [Compound 6, 3-[3-(4-Cyano-phenyl)-2-oxo-imidazolidin-1-ylmethyl]-N—((S)-6-morpholin-4-yl-4,5,6,7-tetrahydro-benzothiazol-2-yl)-benzamide]: the IC50 against ROCKII (1-543) [1] came out at 2 nM; at ROCKII (1-543) [2] it was 1.3 nM.

In the case of `N#Cc1ccc(-c2cn(Cc3cccc(C(=O)Nc4nc5c(s4)C[C@@H](N4CCOCC4)CC5)c3)cn2)cc1` [Compound 10, 3-[4-(4-Cyano-phenyl)-imidazol-1-ylmethyl]-N—((S)-6-morpholin-4-yl-4,5,6,7-tetrahydro-benzothiazol-2-yl)-benzamide], the IC50 worked out at 2.7 nM at ROCKII (1-543) [1] and 0.87 nM at ROCKII (1-543) [2].

`N#Cc1ccc(-c2cnn(Cc3cccc(C(=O)Nc4nc5c(s4)CC(N4CCC(F)(F)CC4)CC5)c3)c2)cc1` (stereo not shown) [Compound 15, 3-[4-(4-Cyano-phenyl)-pyrazol-1-ylmethyl]-N-[6-(4,4-difluoro-piperidin-1-yl)-4,5,6,7-tetrahydro-benzothiazol-2-yl]-benzamide trifluoroacetate]: the IC50 on ROCKII (1-543) [1] was determined as 4.6 nM; at ROCKII (1-543) [2] it was 2.4 nM.

On to `N#Cc1ccc(-c2cnn(Cc3cccc(C(=O)Nc4nc5c(s4)CC(N4CCC(F)CC4)CC5)c3)c2)cc1` (stereo not shown) [Compound 18, 3-[4-(4-Cyano-phenyl)-pyrazol-1-ylmethyl]-N-[6-(4-fluoro-piperidin-1-yl)-4,5,6,7-tetrahydro-benzothiazol-2-yl]-benzamide trifluoroacetate], for which the figures for the half-maximal inhibitory concentration (IC50) against ROCKII (1-543) [1] and at ROCKII (1-543) [2] were 2.2 nM and 0.66 nM, respectively.

`N#Cc1ccc(-c2cn(Cc3cccc(C(=O)Nc4nc5c(s4)C[C@@H](NCCC(F)(F)F)CC5)c3)nn2)cc1` [Compound 22, 3-[4-(4-Cyano-phenyl)-[1,2,3]triazol-1-ylmethyl]-N—[(S)-6-(3,3,3-trifluoro-propylamino)-4,5,6,7-tetrahydro-benzothiazol-2-yl]-benzamide]: the IC50 on ROCKII (1-543) [1] amounted to 2.2 nM; at ROCKII (1-543) [2] it was 1.1 nM.

Regarding `COCCN(C)C1CCc2nc(NC(=O)c3cccc(Cn4cc(-c5ccc(C#N)cc5)nn4)c3)sc2C1` (stereo not shown) [Compound 24, 3-[4-(4-Cyano-phenyl)-[1,2,3]triazol-1-ylmethyl]-N-{6-[(2-methoxy-ethyl)-methyl-amino]-4,5,6,7-tetrahydro-benzothiazol-2-yl}-benzamide], the IC50 against ROCKII (1-543) [1] is 3.1 nM; on ROCKII (1-543) [2], 2.6 nM.

For `COCCN[C@@H]1CCc2nc(NC(=O)c3cccc(Cn4cc(-c5ccc(C#N)cc5)cn4)c3)sc2C1` [Compound 57, 3-[4-(4-Cyano-phenyl)-pyrazol-1-ylmethyl]-N—[(R)-6-(2-methoxy-ethylamino)-4,5,6,7-tetrahydro-benzothiazol-2-yl]-benzamide], 1.9 nM corresponded to half-maximal inhibition at ROCKII (1-543) [1] (IC50).

Compound `N#Cc1ccc(-c2cn(Cc3cccc(C(=O)Nc4nc5c(s4)C[C@H](N)CC5)c3)nn2)cc1` [Compound 58, N—((R)-6-Amino-4,5,6,7-tetrahydro-benzothiazol-2-yl)-3-[4-(4-cyano-phenyl)-[1,2,3]triazol-1-ylmethyl]-benzamide] had an IC50 on ROCKII (1-543) [1] of 2.2 nM.

`CN(CC(F)F)C1CCc2nc(NC(=O)c3cccc(Cn4cc(-c5ccc(C#N)cc5)cn4)c3)sc2C1` (stereo not shown) [Compound 59, 3-[4-(4-Cyano-phenyl)-pyrazol-1-ylmethyl]-N-{6-[(2,2-difluoro-ethyl)-methyl-amino]-4,5,6,7-tetrahydro-benzothiazol-2-yl}-benzamide]: inhibition at ROCKII (1-543) [1] was half-maximal at 7.3 nM (IC50).

`COCCN(C)[C@@H]1CCc2nc(NC(=O)c3cccc(Cn4cc(-c5ccc(C#N)cc5)cn4)c3)sc2C1` [Compound 64, 3-[4-(4-Cyano-phenyl)-pyrazol-1-ylmethyl]-N-{(R)-6-[(2-methoxy-ethyl)-methyl-amino]-4,5,6,7-tetrahydro-benzothiazol-2-yl}-benzamide] yielded a half-maximal inhibitory concentration (IC50) at ROCKII (1-543) [1] of 2 nM.

Compound `COCCN[C@@H]1CCc2nc(NC(=O)c3cccc(Cn4cc(-c5ccc(C#N)cc5)nn4)c3)sc2C1` [Compound 65, 3-[4-(4-Cyano-phenyl)-[1,2,3]triazol-1-ylmethyl]-N—[(R)-6-(2-methoxy-ethylamino)-4,5,6,7-tetrahydro-benzothiazol-2-yl]-benzamide] displayed an IC50 on ROCKII (1-543) [1] of 1.9 nM.

Take `COCCN(C)[C@@H]1CCc2nc(NC(=O)c3cccc(Cn4cc(-c5ccc(C#N)cc5)nn4)c3)sc2C1` [Compound 66, 3-[4-(4-Cyano-phenyl)-[1,2,3]triazol-1-ylmethyl]-N-{(R)-6-[(2-methoxy-ethyl)-methyl-amino]-4,5,6,7-tetrahydro-benzothiazol-2-yl}-benzamide]: it took 6.5 nM to reach half-maximal inhibition on ROCKII (1-543) [1] (IC50).

Regarding `CN(C1CC1)C1CCc2nc(NC(=O)c3cccc(Cn4cc(-c5ccc(C#N)cc5)cn4)c3)sc2C1` (stereo not shown) [Compound 67, 3-[4-(4-Cyano-phenyl)-pyrazol-1-ylmethyl]-N-[6-(cyclopropyl-methyl-amino)-4,5,6,7-tetrahydro-benzothiazol-2-yl]-benzamide], on ROCKII (1-543) [1], the IC50 came to 4.5 nM.

`CN(C1CC1)C1CCc2nc(NC(=O)c3cccc(Cn4cc(-c5ccc(C#N)cc5)nn4)c3)sc2C1` (stereo not shown) [Compound 68, 3-[4-(4-Cyano-phenyl)-[1,2,3]triazol-1-ylmethyl]-N-[6-(cyclopropyl-methyl-amino)-4,5,6,7-tetrahydro-benzothiazol-2-yl]-benzamide] displayed an IC50 at ROCKII (1-543) [1] of 7.3 nM.

As to `N#Cc1ccc(-c2cnn(Cc3cccc(C(=O)Nc4nc5c(s4)CC(N4CCCC(F)(F)C4)CC5)c3)c2)cc1` (stereo not shown) [Compound 71, 3-[4-(4-Cyano-phenyl)-pyrazol-1-ylmethyl]-N-[6-(3,3-difluoro-piperidin-1-yl)-4,5,6,7-tetrahydro-benzothiazol-2-yl]-benzamide], at ROCKII (1-543) [1], the IC50 amounted to 7.2 nM.

Take `N#Cc1ccc(-c2cnn(Cc3cccc(C(=O)Nc4nc5c(s4)CC(N4CCC(F)(F)C4)CC5)c3)c2)cc1` (stereo not shown) [Compound 73, 3-[4-(4-Cyano-phenyl)-pyrazol-1-ylmethyl]-N-[6-(3,3-difluoro-pyrrolidin-1-yl)-4,5,6,7-tetrahydro-benzothiazol-2-yl]-benzamide]: the IC50 against ROCKII (1-543) [1] stood at 8.5 nM.
